# Test results published in patent US12728112B2, “Application of sesquiterpene lactone in preparing drug for treating optic neuritis” (ACCENDATECH LUOYANG CO., LTD., priority 2020, dated 2026).
# “Also recorded” adds a separate entry of the source.
# Tests used:
# [1] = system: BV2 cells; experiment: Proliferation activity of microglial cell BV2 (MTT and CCK8 methods); assay type: cell-based; conditions: Mus musculus
# Text: We then intended to use ACT001 for treating neuromyelitis optica.
# [2] = system: Lewis rat NMO disease models; experiment: NMO animal model: NMO patient serum and complement injected intrathecally, behavioral scoring; assay type: in vivo; conditions: for Behavioral score: intragastric daily, ACT001 60 mg/kg, hormone 30 mg/kg
# Experimental: Meanwhile, before establishing NMO animal models, firstly, the spinal intrathecal catheterization was performed on Lewis rats, wherein an outlet could be placed at the spinal cord and at the first lumbar vertebra of the rat by controlling the length (7 cm) of a PE10 soft tube. For the Lewis rats after spinal intrathecal catheterization, they had no difference in behavior from normal rats the next day after the operation. Successfully modeled rats were divided into three groups, and 10 μL of each of the serum and complement system of an NMO patient was injected into the soft tubes in the rats for which the intubation was successful, and the supplementation was performed every four days. The administration regimen was as follows: the model control group (6 animals) was intragastrically administered normal saline every day for 15 consecutive days; the hormone group (8 animals) was intragastrically administered the methylprednisolone […] for injection every day at a dose of 30 mg/kg for 15 consecutive days; and the ACT001 group (6 animals) was intragastrically administered the ACT001 solution every day at a dose of 60 mg/kg for 15 consecutive days. The animal state was observed daily, and behavioral scores were recorded based on animal symptoms.
# 10 μL of each of the serum and complement system of an NMO patient was injected into the soft tubes in the rats for which the spinal intrathecal catheterization was successful, and the supplementation was performed every four days, thus establishing the NMO animal models. Model animals were randomized into three groups, namely: the normal saline group, the hormone (methylprednisolone sodium succinate for injection) group and the ACT001 group, and the administration regimen is as follows:
# Behavioral scoring was performed based on animal symptoms.
# The scoring criteria were as follows: • 0 point: no clinical symptoms; • 1 point: decreased tail tension or mild gait clumsiness; • 2 points: no tail tension or moderate gait abnormality; weakness of both hind limbs and recovery after being turned over passively; • 3 points: paralysis of both hind limbs. no recovery after being turned over passively, but capable of moving after stimulation; • 4 points: paralysis of both hind limbs. paralysis or weakened muscle strength of the forelimbs with urinary and fecal incontinence; • 5 points: moribund state or dead.
# Symptoms between two stages were measured as ±0.5.
# [3] = system: TNF-α release by LPS-activated BV-2 cells; experiment: TNF-α release/expression after LPS activation of BV-2 (ELISA); assay type: cell-based; conditions: for TNF-α expression in BV-2 cells: 1 μg/mL LPS
# Experimental: (§1) BV2 cells were digested, counted and plated in a 24-well plate at 1 mL and 40,000 cells per well, and the cells were then incubated overnight in an incubator at 5% CO2 and 37° C. 1 μg/mL LPS was added into each well for 1 h of action, and then ACT001 at different concentrations was added. Five experimental groups were set, namely: (1) control group; (2) ACT001-2.5 μM group; (3) ACT001-5 μM group; (4) ACT001-10 μM group; and (5) ACT001-20 μM group. After 24 h of action, the drug action was completed, the supernatant was collected and centrifuged at 12,000 rpm for 20 min, and then ELISA was performed according to the kit instructions.
# [4] = system: NO release by LPS-activated BV-2 cells; experiment: NO release after LPS activation of BV-2; assay type: cell-based
# Text: 5. FIG. 5 is a graph showing the effect of ACT001 on NO expression (*P<0.05, ** P<0.01, *** P<0.001).
# [5] = system: IL-6 release by LPS-activated BV-2 cells; experiment: IL-6 release/expression after LPS activation of BV-2 (ELISA); assay type: cell-based; conditions: for IL-6 expression in BV-2 cells: 1 μg/mL LPS
# Experimental: as §1, with “and 20,000” for “and 40,000”, “After 8” for “After 24”
# as §1
# [6] = LPS-activated BV-2, ACT001 10 μM, vs control group, fumarate
# [7] = LPS-stimulated microglial cells, concentration not given, fumarate
Structure (SMILES),Behavioral score ([2]; day 0 of treatment) [points],Behavioral score ([2]; day 1 of treatment) [points],Behavioral score ([2]; day 2 of treatment) [points],Behavioral score ([2]; day 3 of treatment) [points],Behavioral score ([2]; day 4 of treatment) [points],Behavioral score ([2]; day 5 of treatment) [points],Behavioral score ([2]; day 6 of treatment) [points],Behavioral score ([2]; day 7 of treatment) [points],Behavioral score ([2]; day 8 of treatment) [points],Behavioral score ([2]; day 9 of treatment) [points],Behavioral score ([2]; day 10 of treatment) [points],Behavioral score ([2]; day 11 of treatment) [points],Behavioral score ([2]; day 12 of treatment) [points],Behavioral score ([2]; day 13 of treatment) [points],Behavioral score ([2]; day 14 of treatment) [points],also measured
"CC1=C2CC[C@@](C)(O)[C@@H]2[C@H]2OC(=O)[C@@H](CN(C)C)[C@@H]2CC1.O=C(O)/C=C/C(=O)O [ACT001, (3R,3aS,9R,9aS,9bS)-3-((dimethylamino)methyl)-9-hydroxy-6,9-dimethyl-3,3a,4,5,7,8,9,9a-octahydroazuleno[4,5-b]furan-2(9bH)-one fumarate]",0.00 ± 0.00,0.42 ± 0.20,0.17 ± 0.26,0.17 ± 0.26,0.00 ± 0.00,1.17 ± 0.68,1.00 ± 0.45,0.83 ± 0.68,0.33 ± 0.26,2.08 ± 0.86,1.25 ± 0.61,0.50 ± 0.00,2.00 ± 0.32,1.92 ± 0.38,1.17 ± 0.26,"IC50 ([1]; BV-2, MTT/CCK8, read-out: IC50, inhibition of proliferation of BV2 cells): 23.6 µM; IC90 ([1]; BV-2, read-out: IC90, in vitro activity inhibition against BV2 cells): 99.1 ± 10.2 µM; tolerance of animals during administration ([2]; ACT001 60 mg/kg intragastric daily, 15 days): well tolerated; disease symptoms / behavioral scores compared to the normal saline control group ([2]; ACT001 60 mg/kg intragastric daily, 15 days, fumarate, 60 mg/kg): significantly alleviated; also recorded: significantly reduce the behavioral scores; also recorded: significantly relieve clinical symptoms; effect compared to the hormone treatment group ([2]; ACT001 60 mg/kg vs methylprednisolone 30 mg/kg, intragastric, 15 days, fumarate): not weaker than that of hormone; also recorded: basically equivalent; Behavioral score ([2]; day 15 of treatment, fumarate): 2.00±0.32 points; TNF-α expression in BV-2 cells ([3]; ACT001 2.5, 5 and 10 μM dose groups, dose-dependent trend (FIG. 4)): reduce TNF-α expression; TNF-α expression in BV-2 cells ([3]; all ACT001 dose groups (2.5-20 μM), p<0.001 vs control (text on FIG. 3)): significantly reduced; release/expression of TNF-α [3, 6]: remarkably reduce; also recorded: significantly reduced; release of TNF-α [3, 7]: significantly reduced; pathological release of microglial cells NO ([4]; ACT001 5 μM (FIG. 5)): significantly could reduce; release of NO ([4]; LPS-activated microglia, ACT001 10 μM): remarkably reduce; release of NO [4, 7]: significantly reduced; IL-6 expression in BV-2 cells ([5]; ACT001 20 μM, p<0.001 vs control): significantly reduced; IL-6 expression in BV-2 cells ([5]; all ACT001 groups (2.5, 5, 10, 20 μM), dose-dependent trend): reduce IL-6 expression; release/expression of IL-6 [5, 6]: remarkably reduce; also recorded: significantly reduced; release of IL-6 [5, 7]: significantly reduced"
"C[C@H]1C[C@@H]2[C@H]([C@@H](O)C[C@@]3(C)[C@H]2CC[C@]3(O)C(=O)COC(=O)CCC(=O)O)[C@@]2(C)C=CC(=O)C=C12 [Hormone, methylprednisolone sodium succinate, reference compound]",0.00 ± 0.00,0.63 ± 0.64,0.50 ± 0.38,0.44 ± 0.32,0.13 ± 0.23,1.75 ± 0.46,0.88 ± 0.23,0.63 ± 0.35,0.38 ± 0.23,2.06 ± 0.42,2.06 ± 0.42,0.88 ± 0.35,2.19 ± 0.26,2.19 ± 0.59,1.00 ± 0.38,"Behavioral score (Table 3, major research results) ([2]; 20 Lewis rats, female, intragastrically once daily for 15 times): group was 2.0 ± 0.3. points; Behavioral score ([2]; day 15 of treatment): 2.31 ± 0.26 points; Behavioral score ([2]; day 15 of treatment, listed as hormone): 2.31±0.26 points"
